Several values for one entry are separate records, joined by “and”; a condition that tells them apart may be missing. Identical values can stand only once.
What was measured:
MRC-5 cells = test: Cytotoxicity in MRC-5 cells; details: for % Effect: CC50 run 30-Apr-2020
[1] = test system: SARS-CoV-2 Washington strain 1 (USA_WA1/2020); assay type: cell-based

COc1cccc2[nH]c(C(=O)N[C@@H](CC(C)C)C(=O)N[C@@H](C[C@@H]3CCNC3=O)C(=O)CO)cc12 [PF-00835231-00]
% Well Effect (MRC-5 cells; 0.0316422 uM, minus efflux inhibitor, CC50 run 24-Apr-2020): 5.91% and -1.40%
% Well Effect (MRC-5 cells; 0.100053 uM, minus efflux inhibitor, CC50 run 24-Apr-2020): 0.31% and -2.42%
% Well Effect (MRC-5 cells; 0.316367 uM, minus efflux inhibitor, CC50 run 24-Apr-2020): 0.82% and -3.88%
% Well Effect (MRC-5 cells; 3.16311 uM, minus efflux inhibitor, CC50 run 24-Apr-2020): 2.27% and -2.51%
% Well Effect (MRC-5 cells; 3.16311 uM, plus 0.5 uM efflux inhibitor, CC50 run 22-may-2020): 2.26%
% Well Effect (MRC-5 cells; 3.16311 uM, plus 0.5 uM efflux inhibitor, CC50 run 24-Apr-2020): -4.43%
% Well Effect (MRC-5 cells; 10.0018 uM, minus efflux inhibitor, CC50 run 24-Apr-2020): 4.47% and -3.27%
% Well Effect (MRC-5 cells; 10.0018 uM, plus 0.5 uM efflux inhibitor, CC50 run 22-may-2020): 2.88%
% Well Effect (MRC-5 cells; 10.0018 uM, plus 0.5 uM efflux inhibitor, CC50 run 24-Apr-2020): -5.99%
% Well Effect (MRC-5 cells; 31.6256 uM, minus efflux inhibitor, CC50 run 24-Apr-2020): 0.83% and -8.49%
% Well Effect (MRC-5 cells; 31.6256 uM, plus 0.5 uM efflux inhibitor, CC50 run 22-may-2020): 5.31%
% Well Effect (MRC-5 cells; 31.6256 uM, plus 0.5 uM efflux inhibitor, CC50 run 24-Apr-2020): -3.70%
% Well Effect (MRC-5 cells; 100 uM, minus efflux inhibitor, CC50 run 24-Apr-2020): -3.72% and -12.98%
% Well Effect (MRC-5 cells; 100 uM, plus 0.5 uM efflux inhibitor, CC50 run 22-may-2020): -0.43%
% Well Effect (MRC-5 cells; 100 uM, plus 0.5 uM efflux inhibitor, CC50 run 24-Apr-2020): -3.29%
% Well Effect (MRC-5 cells; CC50 data, MRC-5 cells, run 22-may-2020, plate GCNS00043792A, [Assay] 0.031642 uM): -3.27% and -2.12%
% Well Effect (MRC-5 cells; CC50 data, MRC-5 cells, run 22-may-2020, plate GCNS00043792A, [Assay] 0.100053 uM): -1.81% and 2.13%
% Well Effect (MRC-5 cells; CC50 data, MRC-5 cells, run 22-may-2020, plate GCNS00043792A, [Assay] 0.316367 uM): -2.43% and 2.23%
% Well Effect (MRC-5 cells; CC50 data, MRC-5 cells, run 22-may-2020, plate GCNS00043792A, [Assay] 1.00035 uM): 1.33% and 1.48%
% Well Effect (MRC-5 cells; CC50 data, MRC-5 cells, run 22-may-2020, plate GCNS00043792A, [Assay] 3.16311 uM): -3.27%
% Well Effect (MRC-5 cells; CC50 data, MRC-5 cells, run 22-may-2020, plate GCNS00043792A, [Assay] 10.0018 uM): -1.55%
% Well Effect (MRC-5 cells; CC50 data, MRC-5 cells, run 22-may-2020, plate GCNS00043792A, [Assay] 31.6256 uM): 0.64%
% Well Effect (MRC-5 cells; CC50 data, MRC-5 cells, run 22-may-2020, plate GCNS00043792A, [Assay] 100 uM): -1.12%
% Well Effect (MRC-5 cells; CC50 data, MRC-5 cells, run 24-Apr-2020, plate GCNS00043676A, [Assay] 0.0316422 uM): -8.00% and -3.89%
% Well Effect (MRC-5 cells; CC50 data, MRC-5 cells, run 24-Apr-2020, plate GCNS00043676A, [Assay] 0.100053 uM): -11.58% and -9.10%
% Well Effect (MRC-5 cells; CC50 data, MRC-5 cells, run 24-Apr-2020, plate GCNS00043676A, [Assay] 0.316367 uM): -6.82% and -8.60%
% Well Effect (MRC-5 cells; CC50 data, MRC-5 cells, run 24-Apr-2020, plate GCNS00043676A, [Assay] 1.00035 uM): -10.61% and -9.50%
% Well Effect (MRC-5 cells; CC50 data, MRC-5 cells, run 24-Apr-2020, plate GCNS00043676A, [Assay] 3.16311 uM): -5.78%
% Well Effect (MRC-5 cells; CC50 data, MRC-5 cells, run 24-Apr-2020, plate GCNS00043676A, [Assay] 10.0018 uM): -3.01%
% Well Effect (MRC-5 cells; CC50 data, MRC-5 cells, run 24-Apr-2020, plate GCNS00043676A, [Assay] 31.6256 uM): -3.17%
% Well Effect (MRC-5 cells; CC50 data, MRC-5 cells, run 24-Apr-2020, plate GCNS00043676A, [Assay] 100 uM): 0.84%
% Effect (MRC-5 cells; Concentration 0.78125, minus efflux inhibitor): -1.26% and -6.59%
% Effect (MRC-5 cells; Concentration 1.5625, minus efflux inhibitor): -9.86% and -8.48%
% Effect (MRC-5 cells; Concentration 3.125, minus efflux inhibitor): -3.51% and -6.64%
% Effect (MRC-5 cells; Concentration 6.25, minus efflux inhibitor): -4.42% and -7.91%
% Effect (MRC-5 cells; Concentration 12.5, minus efflux inhibitor): -6.72% and -7.11%
% Effect (MRC-5 cells; Concentration 25, minus efflux inhibitor): -6.44% and -6.96%
% Effect (MRC-5 cells; Concentration 50, minus efflux inhibitor): -10.88% and -4.85%
% Effect (MRC-5 cells; Concentration 100, minus efflux inhibitor): -4.27% and -7.38%
% Well Effect [1]: 0.795%

Source: article PMC8523698, “Preclinical characterization of an intravenous coronavirus 3CL protease inhibitor for the potential treatment of COVID19” (Nature Communications, 2021)
